The structures appear in SMILES notation.

Chain of Recombinant human cathepsin S (CatS) (P25774 115-331): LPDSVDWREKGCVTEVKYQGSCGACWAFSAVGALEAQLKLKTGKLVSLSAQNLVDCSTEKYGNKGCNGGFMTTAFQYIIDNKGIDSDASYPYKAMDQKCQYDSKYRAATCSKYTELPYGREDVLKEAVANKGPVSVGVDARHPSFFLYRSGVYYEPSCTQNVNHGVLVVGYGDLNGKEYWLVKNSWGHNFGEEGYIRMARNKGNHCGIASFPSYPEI

The first experiment addresses Recombinant human cathepsin S (CatS) (Homo sapiens, UniProt P25774). Nature of the experiment: Recombinant human cathepsin S (CatS) inhibition assay, fluorogenic substrate Z-Valine-Valine-Arginine-AMC.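 Further: Baculovirus-expressed CatS in pH 5.0 sodium acetate buffer with DTT and NaCl, fluorescence read each minute over 20 min, inhibition derived from rate slope.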
Conditions: not given
As for `COC(=O)C1CCN(CC(O)Cn2nc(-c3ccc(C(F)(F)F)c(C#Cc4ccc(Cl)cc4)c3)c3c2CCN(S(C)(=O)=O)C3)CC1` (centres unmarked) [Example 117, 1-(3-{3-[3-(4-Chloro-phenylethynyl)-4-trifluoromethyl-phenyl]-5-methanesulfonyl-4,5,6,7-tetrahydro-pyrazolo[4,3-c]pyridin-1-yl}-2-hydroxy-propyl)-piperidine-4-carboxylic acid methyl ester], the IC50 is 40 nM.

With `CS(=O)(=O)N1CCc2c(c(-c3ccc(Cl)c(CCCCN4CCOCC4)c3)nn2CCCN2CCC(N3CCCC3=O)CC2)C1` [Example 113, 1-[1-(3-{3-[4-Chloro-3-(4-morpholin-4-yl-butyl)-phenyl]-5-methanesulfonyl-4,5,6,7-tetrahydro-pyrazolo[4,3-c]pyridin-1-yl}-propyl)-piperidin-4-yl]-pyrrolidin-2-one], the 50% inhibitory concentration (IC50) amounted to 3580 nM.

Regarding `NCC(=O)N1CCc2c(c(-c3ccc(Cl)c(C#Cc4ccc(CNCc5ccc(Cl)cc5)cc4)c3)nn2CCCN2CCOCC2)C1` [Example 154, 2-[3-(4-Chloro-3-{[4-({[(4-chlorophenyl)methyl]amino}methyl)phenyl]ethynyl}phenyl)-1-(3-morpholin-4-ylpropyl)-1,4,6,7-tetrahydro-5H-pyrazolo[4,3-c]pyridin-5-yl]-2-oxoethanamine], the IC50 is 260 nM.

`CS(=O)(=O)N1CCc2c(c(-c3ccc(Cl)c(CCCO)c3)nn2CCCN2CCC(N3CCCC3=O)CC2)C1` [Example 313, 1-[1-(3-{3-[4-Chloro-3-(3-hydroxypropyl)phenyl]-5-(methylsulfonyl)-4,5,6,7-tetrahydro-1H-pyrazolo[4,3-c]pyridin-1-yl}propyl)piperidin-4-yl]pyrrolidin-2-one]: the concentration for half-maximal inhibition (IC50) is 1960 nM.

On to `CS(=O)(=O)N1CCc2c(c(-c3ccc(Cl)c(C#Cc4ccc(CNCCc5ccccc5)cc4)c3)nn2CCCN2CCOCC2)C1` [Example 316, N-{[4-({2-Chloro-5-[5-(methylsulfonyl)-1-(3-morpholin-4-ylpropyl)-4,5,6,7-tetrahydro-1H-pyrazolo[4,3-c]pyridin-3-yl]phenyl}ethynyl)phenyl]methyl}-2-phenylethanamine], for which the IC50 came to 580 nM.

Regarding `CS(=O)(=O)N1CCc2c(c(-c3ccc(Cl)c(C#Cc4ccc(CNCc5ccc(Cl)cc5)c(F)c4)c3)nn2CCCN2CCOCC2)C1` [Example 436, 1-[4-({2-Chloro-5-[5-(methylsulfonyl)-1-(3-morpholin-4-ylpropyl)-4,5,6,7-tetrahydro-1H-pyrazolo[4,3-c]pyridin-3-yl]phenyl}ethynyl)-2-fluorophenyl]-N-[(4-chlorophenyl)methyl]methanamine], the IC50 was 280 nM.

Regarding `CS(=O)(=O)N1CCc2c(c(-c3ccc(Cl)c(C#Cc4ccc(Cl)cc4)c3)nn2C[C@@H](O)CN2CCC(C3CCNCC3)CC2)C1` [Example 448, (2S)-1-(4,4′-Bipiperidin-1-yl)-3-[3-{4-chloro-3-[(4-chlorophenyl)ethynyl]phenyl}-5-(methylsulfonyl)-4,5,6,7-tetrahydro-1H-pyrazolo[4,3-c]pyridin-1-yl]propan-2-ol], the half-inhibitory concentration (IC50) was determined as 10 nM.

On to `CS(=O)(=O)N1CCc2c(c(-c3ccc(Cl)c(CCc4ccc(Cl)cc4)c3)nn2CC(O)CN2CCOCC2)C1` (centres unmarked) [Example 149, 1-(3-{4-Chloro-3-[2-(4-chloro-phenyl)-ethyl]-phenyl}-5-methanesulfonyl-4,5,6,7-tetrahydro-pyrazolo[4,3-c]pyridin-1-yl)-3-morpholin-4-yl-propan-2-ol], for which the half-inhibitory concentration (IC50) is 110 nM.

As for `C[C@H]1COCCN1CCCn1nc(-c2ccc(Cl)c(C#Cc3cccc(CNCc4ccc(Cl)cc4)c3)c2)c2c1CCN(S(C)(=O)=O)C2` [Example 439, 1-[3-({2-Chloro-5-[1-{3-[(3S)-3-methylmorpholin-4-yl]propyl}-5-(methylsulfonyl)-4,5,6,7-tetrahydro-1H-pyrazolo[4,3-c]pyridin-3-yl]phenyl}ethynyl)phenyl]-N-[(4-chlorophenyl)methyl]methanamine], the half-maximal inhibitory concentration (IC50) came to 320 nM.

In the case of `C[C@H]1COCCN1CCCn1nc(-c2ccc(Cl)c(C#Cc3ccc(Cl)c(CNCc4ccccc4)c3)c2)c2c1CCN(C(=O)C(N)=O)C2` [Example 285, 2-(3-{4-Chloro-3-[(4-chloro-3-{[(phenylmethyl)amino]methyl}phenyl)ethynyl]phenyl}-1-{3-[(3S)-3-methylmorpholin-4-yl]propyl}-1,4,6,7-tetrahydro-5H-pyrazolo[4,3-c]pyridin-5-yl)-2-oxoacetamide], the IC50 came to 20 nM.

For `CCNCc1cc(C#Cc2cc(-c3nn(CCCN4CCOC[C@@H]4C)c4c3CN(C(=O)C(N)=O)CC4)ccc2Cl)ccc1Cl` [Example 566, 2-(3-[4-Chloro-3-({4-chloro-3-[(ethylamino)methyl]phenyl}ethynyl)phenyl]-1-{3-[(3S)-3-methylmorpholin-4-yl]propyl}-1,4,6,7-tetrahydro-5H-pyrazolo[4,3-c]pyridin-5-yl)-2-oxoacetamide], the IC50 was determined as 20 nM.

`CS(=O)(=O)N1CCc2c(c(-c3ccc(Cl)c(C#Cc4ccc(Br)cc4)c3)nn2CCCN2CCOCC2)C1` [Example 18, 3-[3-(4-Bromo-phenylethynyl)-4-chloro-phenyl]-5-methanesulfonyl-1-(3-morpholin-4-yl-propyl)-4,5,6,7-tetrahydro-1H-pyrazolo[4,3-c]pyridine]: the 50% inhibitory concentration (IC50) amounted to 180 nM.

The same experiment, now with this note: CatS IC50.
For `NC(=O)C(=O)N1CCc2c(c(-c3ccc(Cl)c(C#Cc4ccc(Cl)c(C(=O)NCCN5CCOCC5)c4)c3)nn2CCCN2CCCCC2)C1` [Example 591, 5-[(5-{5-[Amino(oxo)acetyl]-1-(3-piperidin-1-ylpropyl)-4,5,6,7-tetrahydro-1H-pyrazolo[4,3-c]pyridin-3-yl}-2-chlorophenyl)ethynyl]-2-chloro-N-(2-morpholin-4-ylethyl)benzamide], the IC50 amounted to 30 nM.

Take `CCN(CC)Cc1ccc(C#Cc2cc(-c3nn(CCCN4CCOCC4)c4c3CN(S(C)(=O)=O)CC4)ccc2Cl)cc1` [Example 317, N-{[4-({2-Chloro-5-[5-(methylsulfonyl)-1-(3-morpholin-4-ylpropyl)-4,5,6,7-tetrahydro-1H-pyrazolo[4,3-c]pyridin-3-yl]phenyl}ethynyl)phenyl]methyl}-N-ethylethanamine]: the concentration for half-maximal inhibition (IC50) was 2710 nM.

With `NC(=O)N1CCc2c(c(-c3ccc(Cl)c(C#Cc4ccc(C(=O)NCCN5CCOCC5)cc4)c3)nn2CCCN2CCSCC2)C1` [Example 607, 3-[4-Chloro-3-({4-[(2-morpholin-4-ylethyl)carbamoyl]phenyl}ethynyl)phenyl]-1-(3-thiomorpholin-4-ylpropyl)-1,4,6,7-tetrahydro-5H-pyrazolo[4,3-c]pyridine-5-carboxamide], the IC50 stood at 50 nM.

Turning to `CS(=O)(=O)N1CCc2c(c(-c3ccc(Cl)c(C#Cc4ccc(CN5CCc6ccccc6C5)cc4)c3)nn2CCCN2CCOCC2)C1` [Example 442, 2-{[4-({2-Chloro-5-[5-(methylsulfonyl)-1-(3-morpholin-4-ylpropyl)-4,5,6,7-tetrahydro-1H-pyrazolo[4,3-c]pyridin-3-yl]phenyl}ethynyl)phenyl]methyl}-1,2,3,4-tetrahydroisoquinoline], the concentration for half-maximal inhibition (IC50) was determined as 300 nM.

For the compound `C[C@H]1COCCN1CCCn1nc(-c2ccc(Cl)c(C#Cc3ccc(CNCc4ccc(Cl)cc4)cc3)c2)c2c1CCN(C(=O)CO)C2` [Example 402, 2-[3-(4-Chloro-3-{[4-({[(4-chlorophenyl)methyl]amino}methyl)phenyl]ethynyl}phenyl)-1-{3-[(3S)-3-methylmorpholin-4-yl]propyl}-1,4,6,7-tetrahydro-5H-pyrazolo[4,3-c]pyridin-5-yl]-2-oxoethanol], the IC50 was determined as 150 nM.

Consider `C[C@H]1COCCN1CCCn1nc(-c2ccc(Cl)c(C#Cc3ccc(Cl)c(CN(C)C)c3)c2)c2c1CCN(C(=O)C(N)=O)C2` [Example 616, 2-(3-[4-Chloro-3-({4-chloro-3-[(dimethylamino)methyl]phenyl}ethynyl)phenyl]-1-{3-[(3S)-3-methylmorpholin-4-yl]propyl}-1,4,6,7-tetrahydro-5H-pyrazolo[4,3-c]pyridin-5-yl)-2-oxoacetamide], for which the IC50 is 12 nM.

Regarding `CS(=O)(=O)N1CCc2c(c(-c3ccc(Cl)c(C#Cc4cccc(CNCc5ccc(Cl)cc5)c4)c3)nn2CCCN2C[C@@H]3C[C@H]2CO3)C1` [Example 440, 1-[3-({2-Chloro-5-[5-(methylsulfonyl)-1-{3-[(1S,4S)-2-oxa-5-azabicyclo[2.2.1]hept-5-yl]propyl}-4,5,6,7-tetrahydro-1H-pyrazolo[4,3-c]pyridin-3-yl]phenyl}ethynyl)phenyl]-N-[(4-chlorophenyl)methyl]methanamine], the half-maximal inhibitory concentration (IC50) was determined as 390 nM.

Consider `CC1COCCN1CCCn1nc(-c2ccc(Cl)c(C#Cc3ccc(Cl)c(CNCc4ccccc4)c3)c2)c2c1CCN(C(N)=O)C2` (stereo in doubt) [Example 224, 3-{4-Chloro-3-[(4-chloro-3-{[(phenylmethyl)amino]methyl}phenyl)ethynyl]phenyl}-1-{3-[(3S)-3-methylmorpholin-4-yl]propyl}-1,4,6,7-tetrahydro-5H-pyrazolo[4,3-c]pyridine-5-carboxamide], for which the IC50 stood at 20 nM.

In the case of `Cc1ccc(CNCc2ccc(C#Cc3cc(-c4nn(CCCN5CCSCC5)c5c4CN(C(N)=O)CC5)ccc3Cl)cc2)cc1` [Example 173, 3-(4-Chloro-3-{[4-({[(4-methylphenyl)methyl]amino}methyl)phenyl]ethynyl}phenyl)-1-(3-thiomorpholin-4-ylpropyl)-1,4,6,7-tetrahydro-5H-pyrazolo[4,3-c]pyridine-5-carboxamide], the IC50 worked out at 120 nM.

As to `CN(Cc1ccc(Cl)cc1)Cc1ccc(C#Cc2cc(-c3nn(CCCN4CCOCC4)c4c3CN(S(C)(=O)=O)CC4)ccc2Cl)cc1` [Example 495, 1-[4-({2-Chloro-5-[5-(methylsulfonyl)-1-(3-morpholin-4-ylpropyl)-4,5,6,7-tetrahydro-1H-pyrazolo[4,3-c]pyridin-3-yl]phenyl}ethynyl)phenyl]-N-[(4-chlorophenyl)methyl]-N-methylmethanamine], the concentration for half-maximal inhibition (IC50) was found to be 770 nM.

As for `CC(C)CNCc1cccc(CCc2cc(-c3nn(CCCN4CCOCC4)c4c3CN(S(C)(=O)=O)CC4)ccc2Cl)c1` [Example 531, N-{[3-(2-{2-Chloro-5-[5-(methylsulfonyl)-1-(3-morpholin-4-ylpropyl)-4,5,6,7-tetrahydro-1H-pyrazolo[4,3-c]pyridin-3-yl]phenyl}ethyl)phenyl]methyl}-2-methylpropan-1-amine], the half-maximal inhibitory concentration (IC50) stood at 640 nM.

As a reminder, the IC50 is the midpoint of a concentration-inhibition curve.

Values taken from US20080200454A1, “CARBON-LINKED TETRAHYDRO-PYRAZOLO-PYRIDINE MODULATORS OF CATHEPSIN S” (priority 2007, published 2008).
